Measured values taken from US10912780B2, “Heterocyclic compounds useful as anti-bacterial agents and method for production thereof” (Bugworks Research, Inc., priority 2017, dated 2021).
Converted amounts (≈) assume the structure as drawn. “And” between values parts separate entries of the source, which are not always exact repeats. Equal entries are not always repeated.

Assays:
[1] = system: P. aeruginosa clinical strains; assay: Antibacterial susceptibility studies (MIC50 and MIC90) with clinical strains, CLSI guidelines; format: cell-based
[2] = system: E. cloacae clinical strains; assay: as above; format: cell-based
[3] = biological target: T1, human ether a go-go related gene (hERG) K+ channel (Homo sapiens, UniProt Q12809); assay: hERG inhibition assay, QPatch HTX automated electrophysiology; format: cell-based; details: CHO cell line stably expressing hERG, whole-cell patch clamp, maximum test concentration 300 μM
T1 construct: Chinese Hamster Ovary cell line stably expressing the full-length hERG potassium channel; expressed in transfected cells
Procedure: The compounds were tested for inhibition of the human ether a go-go related gene (hERG) K+ channel using QPatch HTX automated electrophysiology.
Compounds were solubilised to 100 mM in DMSO before dilution in HBPS to 300 μM.
Electrophysiological recordings were made from a Chinese Hamster Ovary cell line stably expressing the full-length hERG potassium channel. Single cell ionic currents were measured in whole-cell patch clamp configuration at room temperature (21-23° C.) using the QPatch HTX platform (Sophion). Intracellular solution contained (mM): 120 KF, 20 KCl, 10 EGTA, 10 HEPES and was buffered to pH 7.3. […] Cells were clamped at a holding potential of −80 mV. […] This sweep was repeated 10 times at 10 s intervals. hERG currents were measured from the tail step and referenced to the holding current. Compounds were then incubated for 2 minutes prior to a second measurement of ion channel current using an identical pulse train.

[4] = IV formulation solubility; format: physicochemical; details: 10% L-ascorbic acid in MilliQ water (IV formulation), aqueous with cosolvent or surfactant or cyclodextrin, IV formulation: 10% L-Ascorbic acid, 1N NaOH for pH adjustment, read-out: Solubility in 10% L-ascorbic acid in fresh MilliQ water(v/v), Final
Procedure: Procedure: Weighed appropriate amount of the Example 15 to be tested and dissolved in 1 ml of the 10% ascorbic acid solution. (Vortex for a few seconds if the compound doesn't dissolve instantly). Sonicated the compound solution at room temperature for 5 minutes using a bath sonicator to obtain a visually clear solution. […]

[5] = system: K. pneumoniae [ATCC13883]; assay: Neutropenic thigh infection model in rat; format: in vivo; details: for Log 10 CFU/g thigh: individual animals
Procedure: Example 15 was tested in rat thigh infection model following intravenous infusion of compound at doses of 100 mg/kg once, 30 mg/kg once daily over a period of 1 hr to assess its efficacy. This study was performed following all ethical practices as laid down in the guidelines for animal care (Registration number No. 1852/PO/Rc/S/16/CPCSEA). The study was approved by the Institutional Animals Ethics Committee (IAEC) of the test facility. The formulation used was 10% of L-ascorbic acid in fresh MilliQ water (w/v) with pH adjusted to ˜4.0 with 1N NaOH. On Day −4 (4 days prior to the desired date of infection), each rat was dosed with a single intra-peritoneal injection of cyclophosphamide equivalent to 150 mg/kg, and returned to its cage. On Day−1 (a day prior to infection) each rat received a dose equivalent to 100 mg/kg of Cyclophosphamide. This procedure ensured that animals will be neutropenic on day 0. […] The inoculum was serially diluted ten-fold in sterile CSDB broth and 0.05 ml of six dilutions were plated onto CSDA agar plates to determine the viable count (CFU/ml) of inoculum. All animals were divided into different groups as specified in the experimental design for each microorganism. All infections were conducted in a biological safety cabinet, with appropriate personnel protection. […] A gentle shaking/mixing of inoculum between two animals was followed for uniform distribution.
Two hours post infection, animals in groups 4, 5 and 6 were administered intravenously with example 15, as a constant rate infusion (duration of infusion 1 h), under Ketamine 60 mg/kg IP+Xylazine 10 mg/kg IP anesthesia, at a dose volume of 10 ml/kg, at the rate of 0.16 ml/min. The dose levels of Example 15 were 10, 30 and 100 mg/kg. […] The total duration of the study was 10 h.
Animals were sacrificed 10 hr post infection and thigh tissues were harvested to enumerate the bacterial CFU count. Thigh muscles were aseptically excised, weighed, and placed into 1 ml of sterile CSDB broth, and homogenized (Omni Tip (220 V hand held)). Serial ten-fold dilutions of the thigh homogenates were prepared in sterile lactose broth and 0.05 mL of four dilutions for each thigh was plated onto CSDA agar plates. Bacterial colonies were enumerated following overnight incubation at […]. Bacterial densities were estimated as Log 10 CFU/gram thigh. The Mean±SD Log 10 CFU/gram thigh was estimated in each group. Significant differences between group means and control will be analyzed by One way ANOVA, followed by a Dunnett's multiple comparison test, using Graphpad Prism at 95% confidence levels. A P value of <0.05 was considered as significant.

[6] = system: P. aeruginosa [ATCC27853]; assay: Neutropenic lung infection model in rat; format: in vivo; details: for MEAN ± SD (Log 10 CFU/g Lung) / Mean Log 10CFU/g lung reduction (wrt 4 h PI control 5.78 Log10CFU/g lung) / Log 10 CFU/g Lung: neutropenic rat, 24 h post infection; for Log 10 CFU/g Lung: individual animals
Procedure: The purpose of this study was to evaluate the efficacy of example 15 against P. aeruginosa [ATCC27853], following single dose intravenous infusion doses of 10, 30 and 100 mg/kg in a neutropenic lung infection model in rats
Prior to the start of the infection process, all animals were divided into different groups. All grouped cages of animals were carried to a procedure room, close to a biological safety cabinet. All infections were conducted in a biological safety cabinet, with appropriate personnel protection. Animals were placed into an induction chamber and anaesthesia was induced by exposing the animals to 3-5% Isoflurane in an oxygen flow set at approximately (˜) 1 liter per minute (LPM). Once the animals were in a sufficiently deep plane of anaesthesia as monitored by pedal reflex, they were removed and infected (2). […] A gentle mixing of inoculum between two animals was followed for uniform distribution.
The IV formulation vehicle used for example 15 was 10% of L-ascorbic acid in fresh MilliQ water (w/v) with pH adjusted to ˜4.0 with 1N Sodium hydroxide solution (w/v), and the dose volume was 10 mL/kg. Meropenem was formulated in saline. […] The dose levels of the test Example 15 were 10, 30 and 100 mg/kg.
All the animals in groups were sacrificed at 24 h post infection, as specified in experimental design, by an overdose of CO2 in an appropriate exposure chamber. The group 1 animals were sacrificed at 4 hrs post infection. The euthanized animals were dipped into 70% ethanol for surface decontamination. Entire Lung was aseptically isolated, weighed and placed into 1 mL of sterile CSDB broth, and homogenized (Omni Tip (220 V hand held)). Serial ten-fold dilutions of the lungs homogenates were prepared in sterile CSD broth and 0.05 mL of four dilutions for each tissue was plated onto CSDA agar plates. Bacterial colonies were enumerated following overnight incubation at 37° C. Bacterial densities were estimated as Log10 CFU/g lung. The Mean±SD Log10 CFU/g lung was estimated in each group. Significant differences between group means and control were analyzed by one way ANOVA, followed by a Dunnett's multiple comparison test, using Graphpad Prism at 95% confidence levels.

[7] = Enterobacter cloacae, E. cloacae clinical strains (88 strains)
[8] = 10 mg/kg, i.v., 1 h infusion, neutropenic rat, 10 hr post infection
[9] = 30 mg/kg, i.v., 1 h infusion, neutropenic rat, 10 hr post infection

T1 sequence (Q12809 whole entry): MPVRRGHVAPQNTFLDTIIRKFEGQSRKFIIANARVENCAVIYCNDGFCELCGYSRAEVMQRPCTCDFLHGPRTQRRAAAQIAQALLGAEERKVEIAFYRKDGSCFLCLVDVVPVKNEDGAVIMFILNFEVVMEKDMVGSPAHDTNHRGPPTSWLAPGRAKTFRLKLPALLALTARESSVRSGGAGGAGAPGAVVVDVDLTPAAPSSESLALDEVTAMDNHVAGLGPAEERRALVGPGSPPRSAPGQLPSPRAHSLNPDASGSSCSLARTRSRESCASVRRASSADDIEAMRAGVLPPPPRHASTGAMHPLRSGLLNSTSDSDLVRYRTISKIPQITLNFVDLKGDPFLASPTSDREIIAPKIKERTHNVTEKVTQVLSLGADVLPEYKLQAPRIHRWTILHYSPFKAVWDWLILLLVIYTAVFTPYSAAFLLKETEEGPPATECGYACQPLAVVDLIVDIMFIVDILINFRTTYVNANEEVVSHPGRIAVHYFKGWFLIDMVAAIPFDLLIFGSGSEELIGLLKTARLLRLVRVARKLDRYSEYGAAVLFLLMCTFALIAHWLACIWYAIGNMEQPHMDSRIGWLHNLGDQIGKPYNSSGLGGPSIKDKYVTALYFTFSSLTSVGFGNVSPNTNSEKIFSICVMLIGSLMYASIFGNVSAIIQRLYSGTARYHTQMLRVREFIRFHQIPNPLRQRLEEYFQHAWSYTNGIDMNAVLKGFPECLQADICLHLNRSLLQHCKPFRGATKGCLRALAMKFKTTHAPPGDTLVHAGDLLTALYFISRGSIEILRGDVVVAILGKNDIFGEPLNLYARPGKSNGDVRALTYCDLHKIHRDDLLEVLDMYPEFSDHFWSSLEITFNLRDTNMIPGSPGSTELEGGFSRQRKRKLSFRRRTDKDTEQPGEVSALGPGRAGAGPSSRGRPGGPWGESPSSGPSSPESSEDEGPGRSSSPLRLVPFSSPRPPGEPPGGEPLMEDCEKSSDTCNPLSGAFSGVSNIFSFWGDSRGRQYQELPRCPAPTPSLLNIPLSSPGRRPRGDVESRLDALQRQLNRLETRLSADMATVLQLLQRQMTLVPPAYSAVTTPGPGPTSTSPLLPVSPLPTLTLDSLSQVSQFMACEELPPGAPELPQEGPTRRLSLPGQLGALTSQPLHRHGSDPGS

## Cn1c(=O)ccc2ccc(F)c(CCNC[C@H]3CN(c4cnc5c(n4)NC(=O)CO5)C(=O)O3)c21 [Example 15, (S)-6-(5-(((2-(7-fluoro-1-methyl-2-oxo-1,2-dihydroquinolin-8-yl)ethyl)amino)methyl)-2-oxooxazolidin-3-yl)-2H-pyrazino[2,3-b][1,4]oxazin-3(4H)-one]
[1]; P. aeruginosa reference strain ATCC27853, no unit in this line
  MIC ATCC27853: 0.25 µg/mL (≈ 0.534 µM)
[1]; Pseudomonas aeruginosa
  MIC50: 0.5 µg/mL (≈ 1.07 µM)
  MIC90: 1 µg/mL (≈ 2.13 µM)
[1]; lowest MIC among P. aeruginosa clinical strains (215 strains; Example 15: 176), no unit in this line
  Minimum: 0.03
[2]; [7]
  MIC50: 0.25 µg/mL (≈ 0.534 µM)
  MIC90: 1 µg/mL (≈ 2.13 µM)
[2]; lowest MIC among E. cloacae clinical strains (88 strains), no unit in this line
  Minimum: 0.03
[3]
  IC50: 131 µM
[4]
  solubility at 5 min: 25 mg/mL (≈ 53400 µM)
[5]; [8]
  MEAN ± SD (Log 10 CFU/g thigh): 2.91 ± 0.24 Log 10 CFU/g thigh
  Log 10 CFU/g thigh: 3.18 Log 10 CFU/g thigh and 2.85 Log 10 CFU/g thigh and 2.71 Log 10 CFU/g thigh
[5]; [9]
  MEAN ± SD (Log 10 CFU/g thigh): 2.22 ± 0.50 Log 10 CFU/g thigh
  Mean Log10CFU/g thigh reduction (wrt 2 h PI control: 4.72 Log10CFU/g thigh): 2.50 Log10CFU/g thigh
  Log 10 CFU/g thigh: 1.92 Log 10 CFU/g thigh and 1.94 Log 10 CFU/g thigh and 2.8 Log 10 CFU/g thigh
[5]; rat thigh model, 10 and 30 mg/kg
  efficacy with respect to 2 h Post Infection (PI) control (in words): significant dose dependent efficacy
[5]; rat thigh model, similar dose (10 mg/kg)
  efficacy versus standard drug (in words): comparable to standard drug ciprofloxacin
[6]; 10 mg/kg, i.v. 1 h infusion
  MEAN ± SD (Log 10 CFU/g Lung): 6.63 ± 0.15 Log 10 CFU/g Lung
  Mean Log 10CFU/g lung reduction (wrt 4 h PI control 5.78 Log10CFU/g lung): −0.85 Log10CFU/g lung
[6]; 30 mg/kg, i.v., 1 h infusion
  MEAN ± SD (Log 10 CFU/g Lung): 4.74 ± 0.08 Log 10 CFU/g Lung
  Mean Log 10CFU/g lung reduction (wrt 4 h PI control 5.78 Log10CFU/g lung): 1.04 Log10CFU/g lung
  Log 10 CFU/g Lung: 4.79 Log 10 CFU/g Lung and 4.65 Log 10 CFU/g Lung and 4.78 Log 10 CFU/g Lung
[6]; 100 mg/kg, i.v., 1 h infusion
  MEAN ± SD (Log 10 CFU/g Lung): 4.76 ± 0.2 Log 10 CFU/g Lung
  Mean Log 10CFU/g lung reduction (wrt 4 h PI control 5.78 Log10CFU/g lung): 1.02 Log10CFU/g lung
  Log 10 CFU/g Lung: 4.84 Log 10 CFU/g Lung and 4.53 Log 10 CFU/g Lung and 4.90 Log 10 CFU/g Lung
[6]; 10 mg/g, i.v. 1 h infusion
  Log 10 CFU/g Lung: 6.68 Log 10 CFU/g Lung and 6.75 Log 10 CFU/g Lung and 6.47 Log 10 CFU/g Lung
[6]; rat lung model, 10 mg/kg
  efficacy compared to the early infection control (in words): bacteriostatic
[6]; rat lung model, 30 mg/kg and 100 mg/kg
  efficacy with respect to early infection control (in words): significant efficacy
[6]; rat lung model, similar dose (30 mg/kg)
  efficacy versus standard drug (in words): comparable to standard drug meropenem
